Results taken from US20230218710A1, “METHOD OF TREATING CORONAVIRUS INFECTIONS” (priority 2020, published 2023).
Marks after values point to notes of the source that are not given here.

Key:
[1] = tested on: LPS-induced acute lung tissue damage; details: animals; Petrescu et al. 2010; cited from earlier work
[2] = tested on: LPS-induced tissue damage in the liver; details: rats; Zhou et al. 2018; cited from earlier work
[3] = tested on: LPS-induced acute lung injury mouse model; experiment: LPS-induced acute lung injury model in mouse (Example 6); assay type: in vivo, mice; details: 10 nmol/kg i.p.; for Mean (SEM) Lung Weight: normalized to body weight
Description: The effect of the peptides of the current invention on acute lung injury can be assessed in an LPS-induced acute lung injury mouse model by monitoring outcomes such as lung weight, fluid accumulation, cytokine secretion in blood or bronchoalveolar lavage fluid (BALF), neutrophil infiltration into lung tissues, and assessment of acute lung injury score by histopathology. Acute lung injury was induced in male C57BL/6 mice (6 to 8 weeks old) by intratracheal administration of 40 μL lipopolysaccharide (LPS) (Sigma Aldrich, St. Louis, Mo.) in PBS at 5 mg/kg. Control animals received intratracheal PBS alone. […] Treatments were administered 1 h prior to LPS for animals designated for sacrifice at 4 h after LPS, or at both 1 h prior to and 6 h after LPS for animals designated for sacrifice at 24 h after LPS. At 4 or 24 hours post LPS administration, tissues were harvested. Lungs were weighed, flushed with Hanks Buffer to provide bronchoalveolar lavage fluid (BALF). Lungs were fixed in 10% neutral buffered formalin (NBF) for histopathology. Tissue slides were stained with hematoxylin and eosin (H&E) and evaluated and scored with light microscopy of 5 representative microscopic fields (100× magnification) scoring on a 0-5 scale using standard methods (Matute-Bello G et al 2011. An Official American Thoracic Society Workshop Report: Features and Measurements of Experimental Acute Lung Injury in Animals. Am J Respir Cell Mol Biol 44:725-38). The average score for five fields was calculated for each animal. Levels of pro-inflammatory cytokines in BALF were determined using a meso scale discovery (MSD) system. Data for test peptides were compared to the vehicle control group. Lung weights were normalized to body weight.

[4] = histopathology, 0-5 scale, 24 h after LPS

CSCC[C@H](NC(=O)[C@@H]1CCCN1C(=O)CNC(=O)[C@H](CCCCN)NC(=O)[C@H](Cc1c[nH]cn1)NC(=O)[C@H](CO)NC(=O)[C@H](CC(C)C)NC(=O)[C@H](CCCNC(=N)N)NC(=O)[C@@H]1CCCN1C(=O)[C@H](CCCNC(=N)N)NC(=O)[C@@H](N)CCC(N)=O)C(=O)N1CCC[C@H]1C(=O)N[C@@H](Cc1ccccc1)C(=O)O [Apelin-13]
Pulmonary vascular leakage resulting from LPS-induced acute lung tissue damage (in words) [1]: reduce pulmonary vascular leakage
Tissue damage in the liver induced by LPS (in words) [2]: attenuated tissue damage in the liver
Pro-inflammatory Cytokine Level IFNγ ([3]; BALF, 4 h after LPS): 0.04 pg/mL
Pro-inflammatory Cytokine Level IL-1β ([3]; BALF, 4 h after LPS): 123 pg/mL
Pro-inflammatory Cytokine Level IL-6 ([3]; BALF, 4 h after LPS): 4540 pg/mL
Pro-inflammatory Cytokine Level IL-17-A ([3]; BALF, 4 h after LPS): 0.87 pg/mL
Pro-inflammatory Cytokine Level IL-17-C ([3]; BALF, 4 h after LPS): 1.84 pg/mL
Pro-inflammatory Cytokine Level IL-23 ([3]; BALF, 4 h after LPS): 0.68 pg/mL
Pro-inflammatory Cytokine Level KC/GRO ([3]; BALF, 4 h after LPS): 3210 pg/mL
Pro-inflammatory Cytokine Level TNFα ([3]; BALF, 4 h after LPS): 15500 pg/mL
Mean (SEM) Alveolar Neutrophil Infiltration Score [3, 4]: 1.40 (0.21)
Mean (SEM) Interstitial Neutrophil Infiltration Score [3, 4]: 1.13 (0.11)
Mean (SEM) Composite Lung Injury Score ([3]; histopathology, 24 h after LPS): 2.58 (0.29)
Mean (SEM) Lung Weight ([3]; 4 h after LPS): 1.03 (0.03)** g
Mean (SEM) Lung Weight ([3]; 24 h after LPS): 1.32 (0.03)* g
